# Columns and labels:
# luciferase [1] = test: Additional luciferase substrate assay, compared to known analogue C-1 (Table 3); format: biochemical; conditions: relative to C-1 (=1); cell marked (75) instead of @100 uM
# luciferase [2] = test: as above; format: biochemical; conditions: relative to C-1 (=1)
# Description: (§1) Luminescence Assay Procedure: Each compound to be screened was dissolved in DMSO (5 mM) and then further diluted to 100 uM in NANO-GLOR Luciferase Assay Buffer. Each diluted substrate was then combined in equal volumes with purified NanoLuc® Luciferase diluted into CO2 independent media+10% FBS. Initial light output for each substrate was measured in a GloMax®-Multi+ luminometer three minutes after substrate addition and then at five minute intervals as a means to determine signal half-life.
# The compounds of formula (I) were also evaluated for their ability to be luciferase substrates in an additional assay.
# NanoLuc® Luciferase = NanoLuc® Luciferase (Oplophorus gracilirostris, UniProt Q9GV45, A31E/A60N/A81I/F95D/I117V/K70R/L54V/L99Q/M102K/N193R/P142E/Q151K/Q38R/Q45L/V71I/Y165I); format: biochemical; conditions: ratio to coelenterazine (=1); for I (relative light units, ratio in comparison to native coelenterazine): initial light output three minutes after substrate addition; for Half-life (signal half-life, ratio in comparison to native coelenterazine): read at five minute intervals
# Chain of NanoLuc® Luciferase (Q9GV45 other isoform, or with tags, fused parts or gaps with the stated changes): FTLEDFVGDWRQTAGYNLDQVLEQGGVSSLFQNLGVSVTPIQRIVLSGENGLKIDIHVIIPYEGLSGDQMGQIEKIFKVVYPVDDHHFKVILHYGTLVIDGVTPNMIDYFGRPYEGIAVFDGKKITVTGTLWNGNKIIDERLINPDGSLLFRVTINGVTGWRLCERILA
# Description: as §1
# A subset of the synthesized coelenterazine analogues (compounds of formula (I)) were evaluated for their suitability as luciferase substrates. NANOLUC® luciferase was employed for the screening because it is a small (19 kDa), stable, and particularly bright enzyme.
# HEK293 cells = test: Cell viability assay, HEK293; format: cell-based; conditions: Hek293, 24 h incubation, serial dilution; FIGS. 5 and 6
# Description: (§2) Cell Culture: HeLa and HEK293 cells were maintained in DMEM containing 0.3 mg/ml glutamine, 100 IU/ml penicillin, 100 μg/ml streptomycin, and 10% fetal calf serum at 37° C. in 5% CO2. Dulbecco's modified eagle medium (DMEM), Opti-MEM, Penicillin/Streptomycin, and Trypsin-EDTA were purchased from Life Technologies (Carlsbad). Fetal calf serum (FBS) was purchased from HyClone (GE Healthcare). Microtiter plates were purchased from Corning.
# (§3) Cell viability assay: HEK293 or HeLa cells were plated in […] growth medium (DMEM supplemented with 10% FBS) into wells of white, TC-treated, 96-well plates at a density of 10000 cells per well and incubated for 24 h. The growth medium was then replaced with 100 μl Opti-MEM medium, which contained a serial dilution of the indicated compound. Changes in cell viability were then measured after incubation for 24 h using the […]® Green cell viability assay (Promega) according to manufacturer instructions. All luminescent measurements were performed on a GLOMAX® Discover multimode plate reader (Promega).
# HeLa cells = test: Cell viability assay, HeLa; format: cell-based; conditions: 24 h incubation, serial dilution, FIGS. 3 and 4
# Description: as §2, §3
SMILES,RLU (luciferase [1]),RLU (@100 uM) (luciferase [2]),"I (relative light units, ratio in comparison to native coelenterazine) (NanoLuc® Luciferase)","Half-life (signal half-life, ratio in comparison to native coelenterazine) (NanoLuc® Luciferase)",compound-induced cellular toxicity compared to coelenterazine (HEK293 cells),compound-induced cellular toxicity compared to coelenterazine (HeLa cells)
COc1cc(F)ccc1Cc1nc2c(Cc3ccccc3)[nH]c(-c3ccccc3)cn-2c1=O [Compound 22],0.3 (75),–,–,–,–,–
O=c1c(Cc2ccc(F)c(O)c2)nc2c(Cc3ccccc3)[nH]c(-c3ccccc3)cn1-2 [Compound 20],0.29 (75),–,–,–,–,–
O=c1c(Cc2cn(-c3ccccc3)nc2-c2ccccc2)nc2c(Cc3ccccc3)[nH]c(-c3ccccc3)cn1-2 [Compound 14],–,0.001,0.042,2.15,–,–
O=c1c(Cc2cccnc2)nc2c(Cc3ccccc3)[nH]c(-c3ccccc3)cn1-2 [Compound 64],–,0.066,2.75,3.03,–,–
COc1cncc(Cc2nc3c(Cc4ccccc4)[nH]c(-c4ccccc4)cn-3c2=O)c1 [Compound 72],–,0.029,1.208,0.88,–,–
Cn1nnc2cc(Cc3nc4c(Cc5ccccc5)[nH]c(-c5ccccc5)cn-4c3=O)ccc21 [Compound 11],–,0.0072,0.3,1.04,–,–
O=c1c(Cc2ccc(Cl)nc2)nc2c(Cc3ccccc3)[nH]c(-c3ccccc3)cn1-2 [Compound 69],–,0.18,7.5,0.35,–,–
O=c1c(Cc2csc3ccccc23)nc2c(Cc3ccccc3)[nH]c(-c3ccccc3)cn1-2 [Compound 7],–,0.1,4.166,0.52,–,–
COc1ccc(Cc2nc3c(Cc4ccccc4)[nH]c(-c4ccccc4)cn-3c2=O)c(OC)n1 [Compound 73],–,0.16,6.666,0.93,–,–
Cn1nc(-c2cccs2)cc1Cc1nc2c(Cc3ccccc3)[nH]c(-c3ccccc3)cn-2c1=O [Compound 12],–,0.0046,0.192,0.57,–,–
COc1ccc(Cc2nc3c(Cc4ccccc4)[nH]c(-c4ccccc4)cn-3c2=O)cn1 [Compound 71],–,0.65,27.083,0.14,–,–
O=c1c(Cc2ccc(F)nc2)nc2c(Cc3ccccc3)[nH]c(-c3ccccc3)cn1-2 [Compound 68],–,0.31,12.916,0.93,–,–
Cc1noc(C)c1Cc1nc2c(Cc3ccccc3)[nH]c(-c3ccccc3)cn-2c1=O [Compound 13],–,0.014,0.583,2.64,–,–
O=c1c(Cc2ccc(F)cc2F)nc2c(Cc3ccccc3)[nH]c(-c3ccccc3)cn1-2 [Compound 3],–,0.93,38.75,0.23,–,–
Cc1ccc(Cc2nc3c(Cc4ccccc4)[nH]c(-c4ccccc4)cn-3c2=O)cn1 [Compound 76],–,0.04,1.666,1.14,notably reduced toxicity,notably reduced toxicity
O=c1c(Cc2ccc(Cl)nc2Cl)nc2c(Cc3ccccc3)[nH]c(-c3ccccc3)cn1-2 [Compound 75],–,0.023,0.958,0.57,–,–
COc1ncc(Cc2nc3c(Cc4ccccc4)[nH]c(-c4ccccc4)cn-3c2=O)cn1 [Compound 15],–,0.014,0.583,0.88,–,–
Cn1cc(Cc2nc3c(Cc4ccccc4)[nH]c(-c4ccccc4)cn-3c2=O)c(=O)n(C)c1=O [Compound 16],–,0.0001,0.0042,0.005,–,–
N#Cc1cccc(Cc2nc3c(Cc4ccccc4)[nH]c(-c4ccccc4)cn-3c2=O)c1 [Compound 79],–,0.33,13.87,0.52,–,–
O=c1c(Cc2cncc(F)c2)nc2c(Cc3ccccc3)[nH]c(-c3ccccc3)cn1-2 [Compound 66],–,0.039,1.625,0.98,–,–
COc1ccc(Cc2nc3c(Cc4ccccc4)[nH]c(-c4ccccc4)cn-3c2=O)cc1 [Compound 8],–,0.56,23.333,0.38,–,–
O=c1c(Cc2ccc(CN3CCOCC3)o2)nc2c(Cc3ccccc3)[nH]c(-c3ccccc3)cn1-2 [Compound 81],–,0.0059,0.246,1.19,–,–
CN(C)c1ccc(Cc2nc3c(Cc4ccccc4)[nH]c(-c4ccccc4)cn-3c2=O)cn1 [Compound 77],–,0.042,1.75,0.57,–,–
O=c1c(Cc2ccc(F)cc2)nc2c(Cc3ccccc3)[nH]c(-c3ccccc3)cn1-2 [Compound 2],–,0.96,40,0.16,–,–
O=c1c(Cc2ccc(Br)nc2)nc2c(Cc3ccccc3)[nH]c(-c3ccccc3)cn1-2 [Compound 70],–,0.12,5,0.19,–,–
COc1nc(Cl)ccc1Cc1nc2c(Cc3ccccc3)[nH]c(-c3ccccc3)cn-2c1=O [Compound 74],–,0.072,3,1.09,–,–

# From US11015216B2, “Substituted imidazo[1,2-a]pyrazines as luciferase substrates” (PROMEGA CORPORATION, priority 2016, dated 2021)
